US20240117005A1, “NOVEL BICYCLIC PEPTIDES” (THE COUNCIL OF THE QUEENSLAND INSTITUTE OF MEDICAL RESEARCH, priority 2021, published 2024)
Entries after “also recorded” stand apart in the source; their conditions may differ. No end group written: not given here. *: point of attachment. Myristyl = CCCCCCCCCCCCCC*

Target: T1, complex of PDL1-PTM1 and IMPα1 (Homo sapiens, UniProt P52292)
T1 construct: endogenous in cells; host or cells: MDA-MB-231
Test: DUOLINK proximity assay PDL1-PTM1 (PDL1-Ac) and IMPα1, MDA-MB-231
Type: cell-based
Settings: for complex of PDL1-PTM1 and IMPα1 (DUOLINK): MDA-MB-231
Experimental: MDA-MB-231 cells were treated with DL-2; with concentrations ranging from 10 μM to 0.00975 μM. MDA-MB-231 cells were treated with DL-2 or Control and were permeabilized and were probed with the DUOLINK ligation assay. Cover slips were mounted on glass microscope slides with Prolong nucleus glass Antifade reagent (Life Technologies). PDL1-Ac and IMPα1 DUOLINK Digital images were analyzed using ImageJ software (ImageJ, NIH, Bethesda, MD, USA) and graphs represent the mean DOT Fluorescent Intensity in the nucleus or the cytoplasm compartments with significant differences calculated as per Kruskal-Wallis one-way ANOVA.
MDA-MB-231 of were treated with vehicle control, DL-2-Batch 1, DL-2-Batch 2, or linear PDL1 peptide. Cells were permeabilised and were probed with the DUOLINK ligation assay. Cover slips were mounted on glass microscope slides with Prolong nucleus glass Antifade reagent (Life Technologies). PDL1Ac and IMPα1 DUOLINK Digital images were analysed using ImageJ software (ImageJ, NIH, Bethesda, MD, USA) and graphs represent the mean DOT Fluorescent Intensity in the nucleus or the cytoplasm compartments with significant differences calculated as per One-Way ANOVA comparison.
(A) CT26, 4T1 or MDA-MB-231 Cells were treated with inhibitors for 72 hours. Following inhibition, media was removed and replaced with WST-1 cell proliferation reagent. Absorbance was recorded at 450 nm after 1 hour. Data represent a single independent experiment performed in triplicate. Results are graphed as mean +/− standard error (SE). […] PDL1Ac and IMPα1 DUOLINK Digital images were analysed using ImageJ software (ImageJ, NIH, Bethesda, MD, USA) and graphs represent the mean DOT Fluorescent Intensity in the nucleus or the cytoplasm compartments with significant differences calculated as per one-way ANOVA comparison. […] PDL1-unmodified and IMPα1 DUOLINK digital images were analysed using ImageJ software (ImageJ, NIH, Bethesda, MD, USA) and graphs represent the mean DOT fluorescent intensity in the nucleus or the cytoplasm compartments with significant differences calculated as per one-way ANOVA comparison. […]

Molecule: CCCCCCCCCCCCCC(=O)NC(C)C(=O)NC1CSCc2cc3cc(c2)CSC[C@H](NC(=O)[C@H](Cc2ccccc2)NC(=O)[C@H](C(C)CC)NC(=O)[C@H](Cc2ccccc2)NC(=O)[C@H]([C@@H](C)O)NC(=O)C(CC(C)C)NC1=O)C(=O)N[C@@H](CCCNC(C)=N)C(=O)N[C@@H](CC(C)C)C(=O)N[C@@H](CCCNC(=N)N)C(=O)N[C@@H](CCCCN)C(=O)NCC(=O)N[C@@H](CCCNC(=N)N)C(=O)NC(C(=O)N[C@@H](CCSC)C(=O)NC(CCSC)C(=O)N[C@@H](CC(=O)O)C(=O)NC(C(=O)N[C@@H](CCCCN)C(=O)NC(CCCCN)C(=O)O)C(C)C)CSC3 (mixture of isomers) [DL-2]
- complex of PDL1-PTM1 and IMPα1 (DUOLINK): abrogate the complex of PDL1 and IMPα1 in a dose dependent manner; also recorded: able to abrogate the complex
- IC50 (MDA-MB-231, 10 μM to 0.00975 μM): 39 nM

Molecule: LTFIFRLRKGRMMDVKK (Myristyl-LTFIFRLRKGRMMDVKK) [PDL1-L1, Myristyl- linear peptide, prototype]
- complex of PDL1-PTM1 and IMPα1 (DUOLINK): unable to significantly prevent the complex; also recorded: no change
